US9493487B2, “3-(1H-imidazo[4,5-C]pyridin-2-YL)-1H-pyrazolo[3,4-B]pyridine and therapeutic uses thereof” (Samumed, LLC, priority 2014, dated 2016)

Legend:
[1] = system: primary human fibroblasts derived from IPF patients (LL29 cells); assay: Inhibition of TGF-β1-induced fibrosis (αSMA staining) in primary human fibroblasts from IPF patients; format: cell-based; details: Fibroblast, 96 h, TGF-β1 20 ng/mL, 4 days, 11-point dose-response 10 μM to 1.87 nM
Excerpt: The above synthesized compounds were screened using primary human fibroblasts (derived from IPF patients) treated with TGF-β1 to determine their ability to inhibit the fibrotic process.
Primary human fibroblasts derived from IPF patients (LL29 cells) [^1Xiaoqiu Liu, et. al., “Fibrotic Lung Fibroblasts Show Blunted Inhibition by cAMP Due to Deficient cAMP Response Element-Binding Protein Phosphorylation”, Journal of Pharmacology and Experimental Therapeutics (2005), 315(2), 678-687; ^2Watts, K. L., et. al., “RhoA signaling modulates cyclin D1 expression in human lung fibroblasts; implications for idiopathic pulmonary fibrosis”, Respiratory Research (2006), 7(1), 88] were obtained from American Type Culture Collection (ATCC) and expanded in F12 medium supplemented with 15% Fetal Bovine Serum and Penicillin/Streptomycin.
Each compound was dissolved in DMSO as a 10 mM stock and used to prepare compound source plates. Serial dilution (1:2, 11-point dose-response curves from 10 μM to 1.87 nM) and compound transfer was performed using the ECHO 550 (Labcyte, Sunnyvale, Calif.) into 384-well clear bottom assay plates (Greiner Bio-One) with appropriate DMSO backfill for a final DMSO concentration of 0.1%. LL29 cells were plated at 1,500 cells/well in 80 μl/well F12 medium supplemented with 1% Fetal Bovine Serum. One hour after addition of the cells, TGF-β1 (Peprotech; 20 ng/mL) was added to the plates to induce fibrosis (ref. 1 and 2 above). Wells treated with TGF-β1 and containing DMSO were used as controls. Cells were incubated at 37° C. and 5% CO2 for 4 days. Following incubation for 4 days, SYTOX green nucleic acid stain (Life Technologies [Thermo Fisher Scientific]) was added to the wells at a final concentration of 1 uM and incubated at room temperature for 30 min. Cells were then fixed using 4% formaldehyde (Electron Microscopy Sciences), washed 3 times with PBS followed by blocking and permeabilization using 3% Bovine Serum Albumin (BSA; Sigma) and 0.3% Triton X-100 (Sigma) in PBS. Cells were then stained with antibody specific to α-smooth muscle actin (αSMA; Abcam) (ref 1 and 2 above) in 3% Bovine Serum Albumin (BSA; Sigma) and 0.3% Triton X-100 (Sigma) in PBS, and incubated overnight at 4° C. Cells were then washed 3 times with PBS, followed by incubation with Alexa Flor-647 conjugated secondary antibody (Life Technologies [Thermo Fisher Scientific]) and DAPI at room temperature for 1 hour. Cells were then washed 3 times with PBS and plates were sealed for imaging. αSMA staining was imaged by excitation at 630 nm and emission at 665 nm and quantified using the Compartmental Analysis program on the CellInsight CX5 (Thermo Scientific). Dead or apoptotic cells were excluded from analysis based on positive SYTOX green staining. % of total cells positive for αSMA were counted in each well and normalized to the average of 11 wells treated with TGF-β1 on the same plate using Dotmatics' Studies Software. The normalized averages (fold change over untreated) of 3 replicate wells for each compound concentration were used to create dose-responses curves and EC50 values were calculated using non-linear regression curve fit in the Dotmatics' Studies Software. The EC50 values are reported.

[2] = system: Wnt activity (Sp5-Luc reporter, SW480 colon carcinoma cells); assay: Sp5-Luc Wnt reporter gene assay in SW480 colon carcinoma cells; format: cell-based; details: Homo sapiens; SW480 cells stably expressing Sp5-Luc reporter; 42 h incubation; BrightGlo luminescence normalized to DMSO
Excerpt: The screening assay for Wnt activity is described as follows. Reporter cell lines can be generated by stably transducing cancer cell lines (e.g., colon cancer) or primary cells (e.g., IEC-6 intestinal cells) with a lentiviral construct that includes a Wnt-responsive promoter driving expression of the firefly luciferase gene.
SW480 colon carcinoma cells were transduced with a lentiviral vector expressing luciferase with a human Sp5 promoter consisting of a sequence of eight TCF/LEF binding sites. SW480 cells stably expressing the Sp5-Luc reporter gene and a hygromycin resistance gene were selected by treatment with 150 μg/ml of hygromycin for 7 days. These stably transduced SW480 cells were expanded in cell culture and used for all further screening activities. For Sp5-Luc reporter gene assays, the cells were plated at 10,000 cells/well in 96-well plates with growth medium containing 10% fetal calf serum and incubated overnight at 37° C. and 5% CO2. Each compound was dissolved in DMSO as a 10 mM stock in standard j-vials and used to prepare compound source plates in dose-response format with 3-fold serial dilutions and a 10 mM top concentration. Compound transfer from serially diluted source plates to assay plates containing the cells was accomplished using a pintool (Multimek 96, Beckman equipped with V&P Scientific FP1S50H pins) based liquid handling protocol. This protocol used a slotted pin to transfer 50 nl of compound from a source plate well to an assay plate well containing 50 μl of cells in growth medium. […] Control wells received 50 nl of DMSO treatment for normalization and calculating IC50 values. The treated cells were incubated at 37° C. and 5% CO2 for an additional forty-two hours. Following incubation, the growth medium was removed and 50 μl of BrightGlo luminescence reagent (Promega) was added to each well of the 96-well assay plates. The plates were placed on an orbital shaker for 5 min and then luminescence was quantified on the Victor3 (Perkin Elmer) plate reader. Readings were normalized to DMSO only treated cells, and normalized activities were utilized for IC50 calculations using the dose-response log (inhibitor) vs. response-variable slope (four parameters) nonlinear regression feature available in GraphPad Prism 5.0 or 6.0.

SMILES	EC50 [1]	IC50 [2]
CC(=O)c1ccc(-c2nccc3[nH]c(-c4n[nH]c5ncc(-c6cncc(NC(=O)Cc7ccccc7)c6)cc45)nc23)s1 [Compound 374, N-(5-(3-(4-(5-Acetylthiophen-2-yl)-1H-imidazo[4,5-c]pyridin-2-yl)-1H-pyrazolo[3,4-b]pyridin-5-yl)pyridin-3-yl)-2-phenylacetamide]	427 nM	> 10000 nM
Fc1ccc(-c2nccc3[nH]c(-c4n[nH]c5ncc(-c6cncc(CN7CCCC7)c6)cc45)nc23)cc1 [Compound 40, 3-(4-(4-Fluorophenyl)-1H-imidazo[4,5-c]pyridin-2-yl)-5-(5-(pyrrolidin-1-ylmethyl)pyridin-3-yl)-1H-pyrazolo[3,4-b]pyridine]	≥ 9990 nM	> 10000 nM
CN(C)CCNc1cc(F)cc(-c2nccc3[nH]c(-c4n[nH]c5ncc(-c6cncc(CNCC7CCCC7)c6)cc45)nc23)c1 [Compound 440, N^1-(3-(2-(5-(5-(((Cyclopentylmethyl)amino)methyl)pyridin-3-yl)-1H-pyrazolo[3,4-b]pyridin-3-yl)-1H-imidazo[4,5-c]pyridin-4-yl)-5-fluorophenyl)-N^2,N^2-dimethylethane-1,2-diamine]	858 nM	752 nM
O=C(Nc1cncc(-c2cnc3[nH]nc(-c4nc5c(-c6ccsc6)nccc5[nH]4)c3c2)c1)c1ccccc1 [Compound 245, N-(5-(3-(4-(Thiophen-3-yl)-1H-imidazo[4,5-c]pyridin-2-yl)-1H-pyrazolo[3,4-b]pyridin-5-yl)pyridin-3-yl)benzamide]	280 nM	102 nM
CC(C)Nc1cncc(-c2cnc3[nH]nc(-c4nc5c(-c6cccnc6)nccc5[nH]4)c3c2)c1 [Compound 90, N-Isopropyl-5-(3-(4-(pyridin-3-yl)-1H-imidazo[4,5-c]pyridin-2-yl)-1H-pyrazolo[3,4-b]pyridin-5-yl)pyridin-3-amine]	≥ 9990 nM	79.7 nM
CN(C)c1cncc(-c2cnc3[nH]nc(-c4nc5c(N6CCCCC6)nccc5[nH]4)c3c2)c1 [Compound 163, N,N-Dimethyl-5-(3-(4-(piperidin-1-yl)-1H-imidazo[4,5-c]pyridin-2-yl)-1H-pyrazolo[3,4-b]pyridin-5-yl)pyridin-3-amine]	9 nM	777 nM
CCNCc1cncc(-c2cnc3[nH]nc(-c4nc5c(-c6ccccn6)nccc5[nH]4)c3c2)c1 [Compound 136, N-((5-(3-(4-(Pyridin-2-yl)-1H-imidazo[4,5-c]pyridin-2-yl)-1H-pyrazolo[3,4-b]pyridin-5-yl)pyridin-3-yl)methyl)ethanamine]	9 nM	> 10000 nM
NC1CN(c2cncc(-c3cnc4[nH]nc(-c5nc6c(-c7cccc(F)c7)nccc6[nH]5)c4c3)n2)C1 [Compound 890, 1-(6-(3-(4-(3-Fluorophenyl)-1H-imidazo[4,5-c]pyridin-2-yl)-1H-pyrazolo[3,4-b]pyridin-5-yl)pyrazin-2-yl)azetidin-3-amine]	205 nM	365 nM
CN(C)Cc1cncc(-c2cnc3[nH]nc(-c4nc5c(-c6cccc(F)c6)nccc5[nH]4)c3c2)c1 [Compound 13, 1-(5-(3-(4-(3-Fluorophenyl)-1H-imidazo[4,5-c]pyridin-2-yl)-1H-pyrazolo[3,4-b]pyridin-5-yl)pyridin-3-yl)-N,N-dimethylmethanamine]	30 nM	339 nM
O=C(Nc1cncc(-c2cnc3[nH]nc(-c4nc5c(-c6ccccc6F)nccc5[nH]4)c3c2)c1)C1CCCC1 [Compound 73, N-(5-(3-(4-(2-Fluorophenyl)-1H-imidazo[4,5-c]pyridin-2-yl)-1H-pyrazolo[3,4-b]pyridin-5-yl)pyridin-3-yl)cyclopentanecarboxamide]	611 nM	60.2 nM
c1ccc(CNCc2cncc(-c3cnc4[nH]nc(-c5nc6c(-c7cccnc7)nccc6[nH]5)c4c3)c2)cc1 [Compound 101, N-Benzyl-1-(5-(3-(4-(pyridin-3-yl)-1H-imidazo[4,5-c]pyridin-2-yl)-1H-pyrazolo[3,4-b]pyridin-5-yl)pyridin-3-yl)methanamine]	≥ 9990 nM	> 10000 nM
CC(C)CC(=O)Nc1cncc(-c2cnc3[nH]nc(-c4nc5c(-c6ccc(F)cc6)nccc5[nH]4)c3c2)c1 [Compound 28, N-(5-(3-(4-(4-Fluorophenyl)-1H-imidazo[4,5-c]pyridin-2-yl)-1H-pyrazolo[3,4-b]pyridin-5-yl)pyridin-3-yl)-3-methylbutanamide]	881 nM	37.7 nM
CN(C)CC(=O)Nc1cncc(-c2cnc3[nH]nc(-c4nc5c(-c6cccc(F)c6)nccc5[nH]4)c3c2)c1 [Compound 1367, 2-(Dimethylamino)-N-(5-(3-(4-(3-fluorophenyl)-1H-imidazo[4,5-c]pyridin-2-yl)-1H-pyrazolo[3,4-b]pyridin-5-yl)pyridin-3-yl)acetamide]	186 nM	183 nM
c1ccc(CNCc2cncc(-c3cnc4[nH]nc(-c5nc6c(-c7ccsc7)nccc6[nH]5)c4c3)c2)cc1 [Compound 257, N-Benzyl-1-(5-(3-(4-(thiophen-3-yl)-1H-imidazo[4,5-c]pyridin-2-yl)-1H-pyrazolo[3,4-b]pyridin-5-yl)pyridin-3-yl)methanamine]	244 nM	309 nM
O=C(Nc1cncc(-c2cnc3[nH]nc(-c4nc5c(-c6cccc(F)c6)nccc5[nH]4)c3c2)c1)C1CC1 [Compound 19, N-(5-(3-(4-(3-Fluorophenyl)-1H-imidazo[4,5-c]pyridin-2-yl)-1H-pyrazolo[3,4-b]pyridin-5-yl)pyridin-3-yl)cyclopropanecarboxamide]	27 nM	5 nM
COc1cncc(-c2cnc3[nH]nc(-c4nc5c(-c6cccc(F)c6)nccc5[nH]4)c3c2)c1 [Compound 896, 3-(4-(3-Fluorophenyl)-1H-imidazo[4,5-c]pyridin-2-yl)-5-(5-methoxypyridin-3-yl)-1H-pyrazolo[3,4-b]pyridine]	108 nM	37 nM
Fc1cccc(-c2nccc3[nH]c(-c4n[nH]c5ncc(-c6cncc(OC7CCNCC7)c6)cc45)nc23)c1 [Compound 892, 3-(4-(3-Fluorophenyl)-1H-imidazo[4,5-c]pyridin-2-yl)-5-(5-(piperidin-4-yloxy)pyridin-3-yl)-1H-pyrazolo[3,4-b]pyridine]	9 nM	315 nM
CN(C)c1cncc(-c2cnc3[nH]nc(-c4nc5c(-c6cccc(F)c6)nccc5[nH]4)c3c2)c1 [Compound 7, 5-(3-(4-(3-Fluorophenyl)-1H-imidazo[4,5-c]pyridin-2-yl)-1H-pyrazolo[3,4-b]pyridin-5-yl)-N,N-dimethylpyridin-3-amine]	365 nM	35.3 nM
